This note sets out measurements from patent publication US7521464B2, “Pyrazole compounds for treatment of neurodegenerative disorders” (Pfizer Inc., priority 2002, dated 2009).

Each structure is given as a SMILES string.

The subject of this test is gamma-secretase. The test is described as follows: gamma-secretase activity in a solubilized membrane preparation (cell-free assay per McLendon et al.). In kind it is biochemical. The following applies: read-out: IC50 activity for inhibiting gamma-secretase activity. How it is done:
The activity of compounds of the invention in inhibiting gamma-secretase activity was determined in a solubilized membrane preparation generally according to the description provided in McLendon et al. Cell-free assays for γ-secretase activity, The FASEB Journal (Vol. 14, December 2000, pp. 2383-2386).

One may read the IC50 as the concentration at which inhibition is half-maximal.

As for `O=C(Cc1cc(F)cc(F)c1)NC(C(=O)Nc1cc(-c2ccccc2)n[nH]1)c1ccccc1` (centres unmarked) [Example 84, 2-[2-(3,5-difluoro-phenyl)-acetylamino]-2-phenyl-N-(5-phenyl-2H-pyrazol-3-yl)-acetamide], the 50% inhibitory concentration (IC50) is around 1000 nM.

For `CCCC(NC(=O)CC(C)CCC=C(C)C)C(=O)Nc1cc(-c2ccccc2)n[nH]1` (centres unmarked) [Example 138, 3,7-Dimethyl-oct-6-enoic acid [1-(5-phenyl-2H-pyrazol-3-ylcarbamoyl)-butyl]-amide], the IC50 was around 5000 nM.
